According to paper PMC4386733 (Cell, 2013):
Entries after “also recorded” stand apart in the source; their conditions may differ.

Key:
hSTING^R232 [1] = target: T1, hSTING^R232 (Homo sapiens, UniProt Q86WV6, H232R); settings: ITC, Chen laboratory; ref Zhang et al., 2013; cited from earlier work
hSTING^H232 (aa 140–379) = hSTING^H232 (aa 140–379) (Homo sapiens, UniProt Q86WV6, H232R); experiment: ITC binding to hSTING^H232; settings: complex printed as hSTING^H232 in b72 (Figure 4C)
hSTING^H232 = hSTING^H232 (Homo sapiens, UniProt Q86WV6); experiment: IFNB1 luciferase reporter in HEK293T cells, hSTING^H232; settings: cGAMP isomers and c[di-GMP] with digitonin, DMXAA in medium
THP1 cells = experiment: CXCL10 ELISA in THP1 cells after cGAMP stimulation; assay type: cell-based, human; settings: for EC50 comparison: Digitonin-mediated permeabilization
mSting = settings: ref Conlon et al., 2013; cited from earlier work
hSTING^R232/A162 = hSTING^R232/A162 (Homo sapiens, UniProt Q86WV6, H232R/S162A); experiment: ITC binding to hSTING^R232/A162
[2] = target: hSTING^H232/A162 (S162A mutant) (Homo sapiens, UniProt Q86WV6, S162A); experiment: ITC binding to S162A mutant of hSTING^H232
hSTING S162I mutant = hSTING S162I mutant (Homo sapiens, UniProt Q86WV6, S162I); experiment: IFNB1 luciferase reporter in HEK293T cells, hSTING S162I; assay type: cell-based; settings: HEK293T cellular assay
hSTING = settings: ref Conlon et al., 2013; cited from earlier work
[3] = test system: bone-marrow-derived macrophages (BMDMs); settings: 20 µM added to medium, 4 hr, relative to mock treatment
BMDMs = experiment: Western blot of Tbk1 and Irf3 phosphorylation in BMDMs; assay type: cell-based, mouse; settings: 2 and 4 hr after treatment, compared to the two other isomers
hSTING^R232 [4] = target: T1, hSTING^R232; experiment: IFNB1 luciferase reporter in HEK293T cells, hSTING^R232; settings: digitonin delivery
hSTING^THP1 = hSTING^THP1 (Homo sapiens, UniProt Q86WV6, G230A/H232R/H72R/R293Q); experiment: IFNB1 luciferase reporter in HEK293T cells, hSTING^THP1; settings: digitonin delivery, c[di-GMP] 5 and 10 µM
[5] = addition to medium without Digitonin, 18 hr

Chain of hSTING^H232 (Q86WV6 whole entry): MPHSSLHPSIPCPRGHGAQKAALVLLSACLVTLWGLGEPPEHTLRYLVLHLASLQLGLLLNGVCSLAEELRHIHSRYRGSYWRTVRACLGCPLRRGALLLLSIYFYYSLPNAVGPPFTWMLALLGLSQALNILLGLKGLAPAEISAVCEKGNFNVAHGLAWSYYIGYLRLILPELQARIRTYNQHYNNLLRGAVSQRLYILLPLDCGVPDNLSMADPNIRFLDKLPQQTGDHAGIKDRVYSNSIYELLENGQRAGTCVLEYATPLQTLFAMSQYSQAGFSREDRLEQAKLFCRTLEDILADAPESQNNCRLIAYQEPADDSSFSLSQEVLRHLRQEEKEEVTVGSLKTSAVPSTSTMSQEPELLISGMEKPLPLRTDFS
Chain of hSTING^R232/A162 (Q86WV6 140-379 S162A/H232R): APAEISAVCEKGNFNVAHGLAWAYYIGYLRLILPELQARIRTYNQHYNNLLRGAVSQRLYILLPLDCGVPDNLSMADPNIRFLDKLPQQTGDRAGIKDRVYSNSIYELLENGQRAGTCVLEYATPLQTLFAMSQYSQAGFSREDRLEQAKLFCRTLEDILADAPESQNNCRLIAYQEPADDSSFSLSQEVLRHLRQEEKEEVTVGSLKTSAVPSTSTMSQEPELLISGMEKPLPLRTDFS
Chain of hSTING^THP1 (Q86WV6 whole entry H72R/G230A/H232R/R293Q): as the sequence (Q86WV6 whole entry) above, with H72R, G230A, H232R, R293Q counted along it
Chain of hSTING^H232/A162 (S162A mutant) (Q86WV6 140-379 S162A): as the sequence (Q86WV6 140-379 S162A/H232R) above, with R93H counted along it
T1 sequence (Q86WV6 whole entry H232R, the tested form may be a part): as the sequence (Q86WV6 whole entry) above, with H232R counted along it
Chain of hSTING S162I mutant (Q86WV6 whole entry S162I): as the sequence (Q86WV6 whole entry) above, with S162I counted along it
Chain of hSTING^H232 (aa 140–379) (Q86WV6 140-379 H232R): as the sequence (Q86WV6 140-379 S162A/H232R) above, with A23S counted along it

In the case of Nc1nc2c(ncn2[C@@H]2O[C@@H]3COP(=O)(O)O[C@@H]4[C@H](O)[C@@H](COP(=O)(O)O[C@@H]2[C@@H]3O)O[C@H]4n2cnc3c(N)ncnc32)c(=O)[nH]1, the Kd (hSTING^R232 [1]) is given as 280 nM, the Kd (hSTING^H232 (aa 140–379)) is given as 170 nM and the IFN reporter response (hSTING^H232) is given as “no significant differences in stimulation”. The EC50 comparison (THP1 cells) was “no difference in the EC50 values”, the “stimulation more effective than c[G(2′,5′)pA(3′,5′)p]” value (THP1 cells; [5]) was 2.9 fold and the “stimulation more effective than c[G(3′,5′)pA(3′,5′)p]” value (THP1 cells; [5]) was 4.8 fold.

In the case of Cc1ccc2c(=O)c3cccc(CC(=O)O)c3oc2c1C [DMXAA, 5,6-dimethylxanthenone-4-acetic acid], the “activation of mSting” value (mSting) is given as “activates mSting”, the “binding (ITC)” value (hSTING^R232/A162; 25°C) is given as “binding” and the “stoichiometry N value of binding curve” value (hSTING^R232/A162; expected 1) is given as about 1.5. For the same compound, the IFN reporter response (hSTING^H232) was “nonresponsive”, the “binding (ITC)” value ([2]; 25°C) was “binding” and the “stoichiometry N value of binding curve” value ([2]; expected 1) was about 1.5. For the same compound, the IFN induction (hSTING S162I mutant) was “IFN induction was not observed” and the “effect on hSTING” value (hSTING) was “no effect on hSTING”.

In the case of Nc1nc2c(ncn2[C@@H]2O[C@@H]3COP(=O)(O)O[C@H]4[C@@H](O)[C@H](n5cnc6c(N)ncnc65)O[C@@H]4COP(=O)(O)O[C@@H]2[C@@H]3O)c(=O)[nH]1 [c[G(2′,5′)pA(3′,5′)p]], the EC50 comparison (THP1 cells) is reported as “no difference in the EC50 values”.

For Nc1nc2c(ncn2[C@@H]2O[C@@H]3COP(=O)(O)O[C@H]4[C@@H](O)[C@H](n5cnc6c(N)ncnc65)O[C@@H]4COP(=O)(O)O[C@H]3[C@H]2O)c(=O)[nH]1 [c[G(3′,5′)pA(3′,5′)p]], the “Ccl5 mRNA level increase” value [3] was 38 fold, the “Ifnb1 mRNA level increase” value [3] was 1024 fold and the “Il6 mRNA level increase” value [3] was 2624 fold. The “Tbk1 and Irf3 protein phosphorylation” value (BMDMs) was “highest levels of Tbk1 and Irf3 protein phosphorylation”.

With Nc1nc2c(ncn2[C@@H]2O[C@@H]3COP(=O)(O)O[C@H]4[C@@H](O)[C@H](n5cnc6c(=O)[nH]c(N)nc65)O[C@@H]4COP(=O)(O)O[C@H]3[C@H]2O)c(=O)[nH]1 [c[di-GMP]] the IFN reporter response (hSTING^R232 [4]) was “residual response to high concentrations of c[di-GMP]”, the IFN reporter response (hSTING^H232) was “nonresponsive” and the IFN reporter response (hSTING^THP1) was “residual response to high concentrations of c[di-GMP]; also recorded: reduced IFN-pathway activation”.
